The results in this text go back to PubChem BioAssay AID1259407 (Chemical Carcinogenesis Research Information System (CCRIS), 2018).

Activity calls are given as the source filed them. The rule behind the calls is not given here.

The data set deals with CCRIS mutagenicity, Ames/micronucleus/aberration tests. The data set can be described thus: CCRIS mutagenicity studies.

As to `CN(C)c1ccc(N=Nc2ccc3ncsc3c2)cc1`, the mutagenic call is “active; positive” (Test System: AMES SALMONELLA TYPHIMURIUM, Strain/Indicator: TA98, Metabolic Activation: RAT, LIVER, S-9, AROCLOR 1254, Method: PREINCUBATION); “active; positive” (Test System: AMES SALMONELLA TYPHIMURIUM, Strain/Indicator: TA98, Metabolic Activation: RAT, LIVER, S-9, AROCLOR, Method: PREINCUBATION); “active; positive” (Test System: AMES SALMONELLA TYPHIMURIUM, Strain/Indicator: TA98, Metabolic Activation: RAT, LIVER, S-9, AROCLOR, Method: STANDARD PLATE); “active; positive” (Test System: AMES SALMONELLA TYPHIMURIUM, Strain/Indicator: TA98, Metabolic Activation: RAT, LIVER, S-9, Method: PREINCUBATION); “active; positive” (Test System: UDS RAT HEPATOCYTES, Strain/Indicator: THY INCORP, Metabolic Activation: NONE, Method: AUTORADIOGRAPHY); “active; positive” (Test System: UDS RAT HEPATOCYTES, Strain/Indicator: THY INCORP, Metabolic Activation: NONE, Method: IN VIVO). Also, for the setting “Test System: UDS RODENT HEPATOCYTES, Strain/Indicator: THY INCORP (NON-S-PHASE), Metabolic Activation: NONE, Method: AUTORADIOGRAPHY”, the mutagenic call was “active; positive”.

For the molecule `CCCCCC(=O)O[C@]1(C(C)=O)CC[C@H]2[C@@H]3CCC4=CC(=O)CC[C@@H]4[C@H]3CC[C@@]21C`, the mutagenic call is, setting by setting: (Test System: AMES SALMONELLA TYPHIMURIUM, Strain/Indicator: TA98, Metabolic Activation: NONE, Method: STANDARD PLATE) “inactive; negative”; (Test System: AMES SALMONELLA TYPHIMURIUM, Strain/Indicator: TA98, Metabolic Activation: RAT, LIVER, S-9, AROCLOR 1254, Method: STANDARD PLATE) “inactive; negative”; (Test System: AMES SALMONELLA TYPHIMURIUM, Strain/Indicator: TA100, Metabolic Activation: NONE, Method: STANDARD PLATE) “inactive; negative”; (Test System: AMES SALMONELLA TYPHIMURIUM, Strain/Indicator: TA100, Metabolic Activation: RAT, LIVER, S-9, AROCLOR 1254, Method: STANDARD PLATE) “inactive; negative”; (Test System: AMES SALMONELLA TYPHIMURIUM, Strain/Indicator: TA1535, Metabolic Activation: NONE, Method: STANDARD PLATE) “inactive; negative”; (Test System: AMES SALMONELLA TYPHIMURIUM, Strain/Indicator: TA1535, Metabolic Activation: RAT, LIVER, S-9, AROCLOR 1254, Method: STANDARD PLATE) “inactive; negative”. In addition, the mutagenic call is, setting by setting: (Test System: AMES SALMONELLA TYPHIMURIUM, Strain/Indicator: TA1537, Metabolic Activation: NONE, Method: STANDARD PLATE) “inactive; negative”; (Test System: AMES SALMONELLA TYPHIMURIUM, Strain/Indicator: TA1537, Metabolic Activation: RAT, LIVER, S-9, AROCLOR 1254, Method: STANDARD PLATE) “inactive; negative”; (Test System: AMES SALMONELLA TYPHIMURIUM, Strain/Indicator: TA1538, Metabolic Activation: NONE, Method: STANDARD PLATE) “inactive; negative”; (Test System: AMES SALMONELLA TYPHIMURIUM, Strain/Indicator: TA1538, Metabolic Activation: RAT, LIVER, S-9, AROCLOR 1254, Method: STANDARD PLATE) “inactive; negative”.
